Source: patent US20230346743A1, “COMBINATION CANCER THERAPIES” (The Board of Regents of the University of Oklahoma, priority 2018, published 2023)

Legend:
[1] = system: Mycobacterium bovis BCG; conditions: Table of Brown et al., 2004; cited from earlier work
[2] = system: p21; test: Western blots of p21 in ovarian cancer cell lines; assay type: cell-based, human; conditions: A2780, SKOV3, SKOV3 R273H, SKOV3 R248W
Method: Proteins were extracted from cell cultures using M-PER mammalian protein extraction reagent (ThermoFisher, Waltham, MA, USA) and volumes corresponding to 30 µg determined with BCA reagent (ThermoFisher, Waltham, MA, USA) were electrophoresed into a SDS-PAGE gel and transferred to PVDF membranes. Membranes were blocked (5% dry skim milk powder in TBST buffer) for at least 1 h or overnight, washed thrice with TBST and then incubated with primary antibody: p53 DO-1, β-actin, histone H3, GAPDH (Santa Cruz Biotechnology, Dallas, TX, USA) and mortalin, Tom20, V5 tag antibodies, p21, PARP, SLC7A11, caspase 3 (Cell Signaling Technology, Danvers, MA, USA) for at least 1 h or overnight. After three washes, membranes were incubated with anti-mouse HRP conjugated (Santa Cruz Biotechnology, Dallas, TX, USA) or anti-Rabbit HRP conjugated (Cell Signaling Technology, Danvers, MA, USA) for 40 min. Membranes then were washed and developed with ECL reagents (BioRad, Hercules, CA, USA). Bands were imaged and quantified (ChemiDoc imaging system with Image Lab Software/BioRad).

[3] = system: TP21 gene; test: qRT-PCR of TP21 in SKOV3 cells; assay type: cell-based, human; conditions: SKOV3 parental (p53 null) and R273H m-p53 cells; SHetA2 10 µM, PRIMA-1 20 µM, 16 h
[4] = system: SKOV3 R273H; test: MTT cytotoxicity assay; assay type: cell-based; conditions: Homo sapiens, SK-OV-3; SKOV3 permanently transfected with R273H m-p53, MTT
Method: Cells plated at 2000 cells/well in 96 well microtiter plates were incubated for 36-48 h and treated with a range of doses and combinations of SHetA2 and PRIMA-1 or PRIMA-1^MET, or the same volume of DMSO solvent for 72 h of incubation. The percentage of growth for single drug treatments or fold effect (1 - ratio of treated/untreated growth) was measured using the CellTiter 96 AQueous Non-Radioactive Cell Proliferation Assay (Promega, Madison, WI, USA) and the BioTeK SYNERGY H1 (BioTeK, Winooski, VT, USA). Each experiment was performed in triplicate and repeated 2-3 times.
The potencies (IC50′s) of SHetA2 or PRIMA-1 were determined using GraphPad Prism 6 software analysis of average MTT Optical Density vs drug dose. […] Single drug treatments at doses surrounding the IC50 values were evaluated parallel. All treatments were performed in triplicate and averages used to draw isobolograms and calculate combination indices (CI) and dose-reduction indices (DRIs) using CompuSyn Software according to the Chou and Talalay method (op cit). All experiments were repeated at least twice for each cell line to confirm results.

[5] = system: parental SKOV-3 cells; test: MTT cytotoxicity assay; assay type: cell-based, human; conditions: parental SKOV-3 p53 null cells
[6] = infusion in cancer patients; cited from earlier work
[7] = system: R282W m-p53; test: P53 luciferase reporter assay in MESOV cells; assay type: cell-based, human; conditions: 60 µM PRIMA-1^MET, 24 h
Method: To determine the transcriptional activity of p53, MESOV cells were transfected with PG13-Luc plasmids. Approximately 5,000 transfected cells were seeded on to each well of 96-well plate and incubated overnight. These cells were treated with either control solvent, 5 µM SHetA2 or 60 µM PRIMA-1^MET for 24 h. Luciferase activity of the reporter was measured with the One-glo luciferase reporter assay kit (Promega, Madison, WI, USA) and a Biotek Synergy H1 plate reader (BioteK, Winooski, VT, USA). The MTT assay was performed in parallel cultures and used to normalize the p53 reporter activity to the amount of viable cells.

[8] = system: MESOV human ovarian cancer cells; test: Tumor establishment after intraperitoneal injection of MESOV cells (secondary chemoprevention model); assay type: in vivo; conditions: nu/nu mice, MESOV i.p.
Method: Four-week-old female athymic nude mice (NCr-Foxn1^nu) were obtained from Taconic Biosciences under an approved Institutional Animal Care and Use Committee (IACUC) protocol. Mice were acclimatized for two weeks, fed with a standard diet and ear tagged during the acclimatization period. The timing to tumor development after intraperitoneal injection with various amounts of MESOV cells was determined in a pilot study prior. In the intervention experiment, 6-week-old mice were injected with 20 million MESOV human ovarian cancer cells in their intraperitoneal region. Drug treatment was initiated 4 weeks after the injection of cancer cells. Mice were randomized to four treatment groups before the start of treatment based on their body weight. There was no significant (one-way ANOVA, p >0.999) difference in body weight between groups at the start of treatment. Twelve mice were allocated to each group based on the power analysis performed while designing experiment. […] Controls were gavaged with Kolliphor HS15 (30% in water). […] (10 mg/kg) was dissolved in phosphate buffered saline and injected into the peritoneum of mice every other day. Initially SHetA2 dosing was administered every day for two weeks in SHetA2 alone and drug combination groups, and then switched to every other day for the next three weeks due to the stress caused to the mice by daily gavage. Oral gavaging was performed with sterile disposable plastic feeding tubes 20 ga × 38 mm (Instech Laboratories, Inc., Plymouth Meeting, PA, USA). Three mice in the drug combination group died after two weeks of drug treatment due to gavaging incidents. Body weights were recorded and animal health was monitored weekly. After the end of drug intervention period, all mice were euthanized by CO2 asphyxiation followed by exsanguination, their tumors and other vital organs were collected for further analysis. After measuring the total tumor weight, a portion of the tumors were snap frozen in liquid nitrogen and another portion was formalin fixed. The formalin fixed tissue samples were paraffin embedded, sectioned and stained with hematoxylin and eosins for histology studies. An experienced pathologist reviewed blinded histology slides for kidney and liver toxicity. Presence or absence of tumor at the end of the treatment period was used as the primary outcome measure. […] Two by two logistic regression was used to compare the four treatment groups (Untreated control, SHetA2, […] combination) in the study. Mice in the first 3 groups had complete data, while 3 mice in the combo group died early and had zero tumor weights. […]

[9] = Toxicity in the MESOV mouse model (body weight, ascites, kidney and liver histology); assay type: in vivo
Method: Four-week-old female athymic nude mice (NCr-Foxn1^nu) were obtained from Taconic Biosciences under an approved Institutional Animal Care and Use Committee (IACUC) protocol. Mice were acclimatized for two weeks, fed with a standard diet and ear tagged during the acclimatization period. The timing to tumor development after intraperitoneal injection with various amounts of MESOV cells was determined in a pilot study prior. In the intervention experiment, 6-week-old mice were injected with 20 million MESOV human ovarian cancer cells in their intraperitoneal region. Drug treatment was initiated 4 weeks after the injection of cancer cells. Mice were randomized to four treatment groups before the start of treatment based on their body weight. There was no significant (one-way ANOVA, p >0.999) difference in body weight between groups at the start of treatment. Twelve mice were allocated to each group based on the power analysis performed while designing experiment. The sample size was determined to provide over 80% power to detect a 915 mm^3 difference in tumor volume between PRIMA-1^MET treatment alone and the drug combination treatment using a two-sided 0.05 level t-test. SHetA2 was administered by gavage at 60 mg/kg in 30% Kolliphor HS15 (Sigma). Controls were gavaged with Kolliphor HS15 (30% in water). PRIMA-1^MET (10 mg/kg) was dissolved in phosphate buffered saline and injected into the peritoneum of mice every other day. Initially SHetA2 dosing was administered every day for two weeks in SHetA2 alone and drug combination groups, and then switched to every other day for the next three weeks due to the stress caused to the mice by daily gavage. Oral gavaging was performed with sterile disposable plastic feeding tubes 20 ga × 38 mm (Instech Laboratories, Inc., Plymouth Meeting, PA, USA). Three mice in the drug combination group died after two weeks of drug treatment due to gavaging incidents. Body weights were recorded and animal health was monitored weekly. After the end of drug intervention period, all mice were euthanized by CO2 asphyxiation followed by exsanguination, their tumors and other vital organs were collected for further analysis. After measuring the total tumor weight, a portion of the tumors were snap frozen in liquid nitrogen and another portion was formalin fixed. The formalin fixed tissue samples were paraffin embedded, sectioned and stained with hematoxylin and eosins for histology studies. An experienced pathologist reviewed blinded histology slides for kidney and liver toxicity.

[10] = system: Cervical Cancer; test: Dose reduction index at various fold effects in cervical cancer; assay type: cell-based, human; design: Palbociclib Dose: unit not given beside the values; conditions: cell line not named
From the text: Combination Indices (CI's) were derived to determine the level of synergy using the Chow and Talalay method. […] The Dose Reduction Indices (DRIs) were derived to determine the level of reduction for one drug that could be allowed by addition of the second drug at various fold effects (Fas) of the combination treatment (Table 16).

Compound	range [1]	other results
CC(C)CCOc1ccc(NC(=S)Nc2ccc(OCCC(C)C)cc2)cc1	0.5-1.0	–
COC(=O)c1ccc(C(=O)Oc2ccc3c(c2)OC(C)(C)C=C3C)cc1	2.0-4.0	–
CCOC(=O)c1ccc(NC(=S)Nc2ccc3c(c2)C(C)(C)CC(C)(C)O3)cc1	5.0-10.0	–
CC(=C/C=N/NC(N)=S)/C=C/c1ccc2c(c1)C(C)CC(C)(C)N2C (stereo not shown)	10.0-20.0	–
CC1(C)CC(C)(C)c2cc(NC(=S)Nc3ccc([N+](=O)[O-])cc3)ccc2O1	20.0-40.0	–
CCOC(=O)c1ccc(NC(=S)Nc2ccc3c(c2)C(C)=CC(C)(C)N3C)cc1	20.0-40.0	–
CCOC(=O)c1ccc(NC(=O)Nc2ccc3c(c2)C(C)(C)CC(C)(C)O3)cc1	20.0-40.0	–
CC1=CC(C)(C)N(C)c2ccc(NC(=S)Nc3ccc([N+](=O)[O-])cc3)cc21	20.0-40.0	–
CCOC(=O)c1ccc(NC(=O)Nc2ccc3c(c2)C(C)(C)CC(C)(C)S3)cc1	20.0-40.0	–
CCOC(=O)c1ccc(NC(=O)Nc2ccc3c(c2)C(C)=CC(C)(C)N3C)cc1	20.0-40.0	–
CCOC(=O)c1ccc(NC(=S)Nc2ccc3c(c2)C(C)(C)CC(C)(C)S3)cc1	20.0-40.0	–
COc1ccc2c(c1NC(=S)Nc1ccc([N+](=O)[O-])cc1)C(C)(C)COC2(C)C	20.0-40.0	–
CCOC(=O)c1ccc(NC(=S)Nc2cccc3c2OC(C)(C)CC3(C)C)cc1	20.0-40.0	–
COc1ccc2c(c1NC(=S)NC(=O)c1ccc([N+](=O)[O-])cc1)C(C)(C)COC2(C)C	20.0-40.0	–
CC1(C)CC(C)(C)c2cccc(NC(=S)Nc3ccc([N+](=O)[O-])cc3)c2O1	20.0-40.0	–
CCOC(=O)c1ccc(NC(=O)Nc2cccc3c2OC(C)(C)CC3(C)C)cc1	20.0-40.0	–
O=C1C2CCN(CC2)C1(CO)CO [PRIMA-1, 2,2-Bishydroxymethyl-1-azabicyclo[2.2.2]octan-3-one, reference compound]	–	p21 protein (Western blot) [2]: only induced p21 protein expression in A2780 (wt p53); TP21 transcription (qRT-PCR) [3]: did not induce TP21 transcription; IC50 [4]: 40 µM; PRIMA-1 sensitivity [5]: resistant
COCC1(CO)C(=O)C2CCN1CC2 (stereo not shown) [PRIMA-1^MET, 2-(hydroxymethyl)-2-(methoxymethyl)-1-azabicyclo [2.2.2]octan-3-one]	–	Clinical safety [6]: relatively safe with fully reversible central nervous system-related side effects; p53 transcriptional activity (PG13-Luc reporter) [7]: reactivation of R282W m-p53 in MESOV was observed; OR for preventing tumor development (additive logistic regression model) [8]: 4.464; Tumor-free rates ([8]; SHetA2 60 mg/kg gavage, PRIMA-1^MET 10 mg/kg i.p., treatment from day 28 for 38 days): 25%; Kidney or liver toxicity (H & E histology) ([9]; mouse, in vivo, ip): did not cause kidney or liver toxicity; Average body weights compared with mock group ([9]; nu/nu mice, MESOV i.p.): significantly higher than the mock group; Effects on body weight or ascites (abdominal size) ([9]; nu/nu mice, MESOV i.p.): no significant effects on body weight or ascites
CC(=O)c1c(C)c2cnc(Nc3ccc(N4CCNCC4)cn3)nc2n(C2CCCC2)c1=O [Palbociclib, reference compound]	–	Palbociclib Dose ([10]; Fold Effect (Fa) 0.05): 7.16; Palbociclib Dose ([10]; Fold Effect (Fa) 0.75): 24.03; Palbociclib Dose ([10]; Fold Effect (Fa) 0.90): 80.72; Palbociclib Dose ([10]; Fold Effect (Fa) 0.95): 184.00
